According to PubChem BioAssay AID192 (DTP/NCI, 2004):
Toxic doses and inconclusive results are not listed. Peptide text beside a SMILES is read from it.

Tested on: BDF1 mice, B16 melanoma ip, median survival T/C
Experiment: NCI In Vivo Anticancer Drug Screen. Data for tumor model B16 Melanoma (intraperitoneal) in B6D2F1 (BDF1) mice
Conditions: endpoint: median survival time, higher = longer survival
Method in brief: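 Each result divides a survival or tumor-size measurement in the compound-treated group by the same measurement in the vehicle group.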

[1] = dose: 50.0 mg/kg/injection, schedule: Q01DX009 (ip), vehicle: saline with Tween-80
[2] = dose: 100.0 mg/kg/injection, schedule: Q01DX009 (ip), vehicle: saline with Tween-80
[3] = dose: 200.0 mg/kg/injection, schedule: Q01DX009 (ip), vehicle: saline with Tween-80
[4] = dose: 400.0 mg/kg/injection, schedule: Q01DX009 (ip), vehicle: saline with Tween-80
[5] = dose: 25.0 mg/kg/injection, schedule: Q01DX009 (ip), vehicle: saline with Tween-80
[6] = dose: 100.0 mg/kg/injection, schedule: Q01DX009 (ip), vehicle: Klucel (hydroxypropylcellulose) (HPC)
[7] = dose: 200.0 mg/kg/injection, schedule: Q01DX009 (ip), vehicle: Klucel (hydroxypropylcellulose) (HPC)
[8] = dose: 400.0 mg/kg/injection, schedule: Q01DX009 (ip), vehicle: Klucel (hydroxypropylcellulose) (HPC)

Cc1c(N)nc(C(CC(N)=O)NCC(N)C(N)=O)nc1C(=O)NC(C(=O)NC(C)C(O)C(C)C(=O)NC(C(=O)NCCc1nc(-c2nc(C(=O)NCCC[S+](C)C)cs2)cs1)C(C)O)C(OC1OC(CO)C(O)C(O)C1OC1OC(CO)C(O)C(OC(N)=O)C1O)c1cnc[nH]1 (configuration not stated) was tested, and the T/C (dose: 3.9 mg/kg/injection, schedule: Q01DX009 (ip), vehicle: saline) was 107 % of control, the T/C (dose: 7.8 mg/kg/injection, schedule: Q01DX009 (ip), vehicle: saline) was 105 % of control and the T/C (dose: 15.6 mg/kg/injection, schedule: Q01DX009 (ip), vehicle: saline) was 99 % of control.

For CCN(CC)c1nc(Cl)nc(NC(C)C)n1, the T/C [1] was 95 % of control, the T/C [2] was 97 % of control and the T/C [3] was 89 % of control.

With COC(=O)C(Br)C(Br)c1ccccc1 (configuration not stated) the T/C [2] was 90 % of control, the T/C [3] was 90 % of control and the T/C [4] was 90 % of control.

In the case of NC(=S)N/N=C/c1ccc2c(c1)OCO2, the T/C (dose: 50.0 mg/kg/injection, schedule: Q04DX003 (ip), vehicle: saline with Tween-80) is reported as 106 % of control, the T/C (dose: 100.0 mg/kg/injection, schedule: Q04DX003 (ip), vehicle: saline with Tween-80) is reported as 106 % of control and the T/C (dose: 200.0 mg/kg/injection, schedule: Q04DX003 (ip), vehicle: saline with Tween-80) is reported as 110 % of control.

In the case of CC(=O)Nc1ccc(N=Nc2c(O)c(S(=O)(=O)O)cc3cc(S(=O)(=O)O)ccc23)cc1, the T/C [3] is reported as 100 % of control.

With CC(C)CCC1(CCBr)C(=O)NC(=Nc2ccccc2)NC1=O (configuration not stated) the T/C [5] was 86 % of control, the T/C [1] was 106 % of control and the T/C [2] was 96 % of control. For the same compound, the T/C [3] was 96 % of control.

Cc1ccc(NC(=O)Nc2cccc3ccccc23)c(C)c1 was tested, and the T/C [6] was 89 % of control and the T/C [7] was 98 % of control.

For Cc1[nH]ccc2c(C)c3nc4ccccc4c3cc12, the T/C (dose: 25.0 mg/kg/injection, schedule: Q01DX009 (ip), vehicle: Klucel (hydroxypropylcellulose) (HPC)) was 161 % of control.

With NNS(=O)(=O)c1ccc(OCC(=O)O)cc1 the T/C [6] was 98 % of control, the T/C [7] was 97 % of control and the T/C [8] was 93 % of control.

For Nc1ncn(C2CC(O)C(CO)O2)c(=O)n1 (configuration not stated), the T/C (dose: 0.01 mg/kg/injection, schedule: Q01DX009 (ip), vehicle: Klucel (hydroxypropylcellulose) (HPC)) was 98 % of control, the T/C (dose: 0.03 mg/kg/injection, schedule: Q01DX009 (ip), vehicle: Klucel (hydroxypropylcellulose) (HPC)) was 109 % of control and the T/C (dose: 0.05 mg/kg/injection, schedule: Q01DX009 (ip), vehicle: Klucel (hydroxypropylcellulose) (HPC)) was 99 % of control. The T/C (dose: 0.06 mg/kg/injection, schedule: Q01DX009 (ip), vehicle: Klucel (hydroxypropylcellulose) (HPC)) was 98 % of control, the T/C (dose: 0.1 mg/kg/injection, schedule: Q01DX009 (ip), vehicle: Klucel (hydroxypropylcellulose) (HPC)) was 100 % of control and the T/C (dose: 0.12 mg/kg/injection, schedule: Q01DX009 (ip), vehicle: Klucel (hydroxypropylcellulose) (HPC)) was 105 % of control. The T/C (dose: 0.2 mg/kg/injection, schedule: Q01DX009 (ip), vehicle: Klucel (hydroxypropylcellulose) (HPC)) was 100 % of control, the T/C (dose: 0.25 mg/kg/injection, schedule: Q01DX009 (ip), vehicle: Klucel (hydroxypropylcellulose) (HPC)) was 102 % of control and the T/C (dose: 0.4 mg/kg/injection, schedule: Q01DX009 (ip), vehicle: Klucel (hydroxypropylcellulose) (HPC)) was 105 % of control. The T/C (dose: 0.5 mg/kg/injection, schedule: Q01DX009 (ip), vehicle: Klucel (hydroxypropylcellulose) (HPC)) was 104 % of control and the T/C (dose: 0.8 mg/kg/injection, schedule: Q01DX009 (ip), vehicle: Klucel (hydroxypropylcellulose) (HPC)) was 122 % of control.

In the case of CC(C)C(NC(=O)C(N)CCC(=O)O)C(=O)O (stereo not drawn) (H-Glu-Val-OH; configuration not given here), the T/C [1] is reported as 109 % of control, the T/C [2] is reported as 104 % of control and the T/C [3] is reported as 108 % of control. For the same compound, the T/C [4] was 98 % of control.

For CCOc1ccccc1NC(=O)c1cc2ccccc2cc1O, the T/C (dose: 100.0 mg/kg/injection, schedule: Q01DX009 (ip), vehicle: saline) was 115 % of control, the T/C (dose: 200.0 mg/kg/injection, schedule: Q01DX009 (ip), vehicle: saline) was 118 % of control and the T/C (dose: 400.0 mg/kg/injection, schedule: Q01DX009 (ip), vehicle: saline) was 121 % of control.

For CCCCCCC(=O)CC(C)C, the T/C [6] was 93 % of control, the T/C [7] was 90 % of control and the T/C [8] was 86 % of control.

In the case of O=C(CC(O)(C(F)(F)Cl)C(F)(F)Cl)c1ccco1, the T/C [5] is reported as 100 % of control, the T/C [1] is reported as 100 % of control and the T/C [2] is reported as 105 % of control.

Cc1c(N=O)c(=O)n(-c2ccccc2)n1C was tested, and the T/C (dose: 100.0 mg/kg/injection, schedule: Q04DX003 (ip), vehicle: Klucel (hydroxypropylcellulose) (HPC)) was 100 % of control, the T/C (dose: 200.0 mg/kg/injection, schedule: Q04DX003 (ip), vehicle: Klucel (hydroxypropylcellulose) (HPC)) was 100 % of control and the T/C (dose: 400.0 mg/kg/injection, schedule: Q04DX003 (ip), vehicle: Klucel (hydroxypropylcellulose) (HPC)) was 106 % of control.

With O=C(Nc1cccc(Cl)c1)ON1C(=O)C2C(C1=O)C1(Cl)C(Cl)C(Cl)C2(Cl)C1(Cl)Cl (configuration not stated) the T/C (dose: 12.5 mg/kg/injection, schedule: Q01DX009 (ip), vehicle: saline with Tween-80) was 87 % of control and the T/C [5] was 96 % of control.
